Reference: ChEMBL document CHEMBL4715697, “Synthesis and biological activity of benzamide DNA minor groove binders” (2016)

Key:
Type in all cases: functional
[1] = test system: SK-MEL-2; assay: Growth inhibition of human SK-MEL-2 cells assessed as cell growth at 100 uM incubated for 48 hrs by sulforhodamine B assay relative to control; details: read-out: Activity
[2] = test system: PC-3; assay: Growth inhibition of human PC-3 cells assessed as cell growth at 0.1 uM incubated for 48 hrs by sulforhodamine B assay relative to control; details: read-out: Activity
[3] = test system: SF-295; assay: Growth inhibition of human SF-295 cells incubated for 48 hrs by sulforhodamine B assay
[4] = test system: SF-539; assay: Growth inhibition of human SF-539 cells assessed as cell growth at 0.01 uM incubated for 48 hrs by sulforhodamine B assay relative to control; details: read-out: Activity
[5] = test system: MOLT-4; assay: Growth inhibition of human MOLT-4 cells assessed as cell growth at 100 uM incubated for 48 hrs by sulforhodamine B assay relative to control; details: read-out: Activity
[6] = test system: HT-29; assay: Growth inhibition of human HT-29 cells assessed as cell growth at 0.1 uM incubated for 48 hrs by sulforhodamine B assay relative to control; details: read-out: Activity
[7] = test system: SK-OV-3; assay: Growth inhibition of human SK-OV-3 cells incubated for 48 hrs by sulforhodamine B assay
[8] = test system: HL-60(TB); assay: Growth inhibition of human HL-60(TB) cells incubated for 48 hrs by sulforhodamine B assay
[9] = test system: A549; assay: Growth inhibition of human A549/ATCC cells assessed as cell growth at 1 uM incubated for 48 hrs by sulforhodamine B assay relative to control; details: read-out: Activity
[10] = test system: OVCAR-5; assay: Growth inhibition of human OVCAR-5 cells assessed as cell growth at 0.1 uM incubated for 48 hrs by sulforhodamine B assay relative to control; details: read-out: Activity
[11] = test system: Malme-3M; assay: Growth inhibition of human Malme-3M cells assessed as cell growth at 0.01 uM incubated for 48 hrs by sulforhodamine B assay relative to control; details: read-out: Activity
[12] = test system: COLO 205; assay: Growth inhibition of human COLO 205 cells incubated for 48 hrs by sulforhodamine B assay
[13] = test system: MDA-MB-435; assay: Growth inhibition of human MDA-MB-435 cells assessed as cell growth at 0.1 uM incubated for 48 hrs by sulforhodamine B assay relative to control; details: read-out: Activity
[14] = test system: SR; assay: Growth inhibition of human SR cells assessed as cell growth at 100 uM incubated for 48 hrs by sulforhodamine B assay relative to control; details: read-out: Activity
[15] = test system: RXF 393; assay: Growth inhibition of human RXF 393 cells assessed as cell growth at 1 uM incubated for 48 hrs by sulforhodamine B assay relative to control; details: read-out: Activity
[16] = test system: KM12; assay: Growth inhibition of human KM12 cells incubated for 48 hrs by sulforhodamine B assay
[17] = test system: OVCAR-4; assay: Growth inhibition of human OVCAR-4 cells assessed as cell growth at 1 uM incubated for 48 hrs by sulforhodamine B assay relative to control; details: read-out: Activity
[18] = test system: SK-MEL-2; assay: Growth inhibition of human SK-MEL-2 cells assessed as cell growth at 1 uM incubated for 48 hrs by sulforhodamine B assay relative to control; details: read-out: Activity
[19] = test system: SF-295; assay: Growth inhibition of human SF-295 cells assessed as cell growth at 1 uM incubated for 48 hrs by sulforhodamine B assay relative to control; details: read-out: Activity
[20] = test system: CCRF-CEM; assay: Growth inhibition of human CCRF-CEM cells assessed as cell growth at 0.1 uM incubated for 48 hrs by sulforhodamine B assay relative to control; details: read-out: Activity
[21] = test system: OVCAR-8; assay: Growth inhibition of human OVCAR-8 cells assessed as cell growth at 0.01 uM incubated for 48 hrs by sulforhodamine B assay relative to control; details: read-out: Activity
[22] = test system: MOLT-4; assay: Growth inhibition of human MOLT-4 cells assessed as cell growth at 0.1 uM incubated for 48 hrs by sulforhodamine B assay relative to control; details: read-out: Activity
[23] = test system: SF-539; assay: Growth inhibition of human SF-539 cells incubated for 48 hrs by sulforhodamine B assay
[24] = test system: BT-549; assay: Growth inhibition of human BT-549 cells assessed as cell growth at 1 uM incubated for 48 hrs by sulforhodamine B assay relative to control; details: read-out: Activity
[25] = test system: K562; assay: Growth inhibition of human K562 cells assessed as cell growth at 0.01 uM incubated for 48 hrs by sulforhodamine B assay relative to control; details: read-out: Activity
[26] = test system: RXF 393; assay: Growth inhibition of human RXF 393 cells assessed as cell growth at 0.01 uM incubated for 48 hrs by sulforhodamine B assay relative to control; details: read-out: Activity
[27] = test system: NCI-H226; assay: Growth inhibition of human NCI-H226 cells assessed as cell growth at 1 uM incubated for 48 hrs by sulforhodamine B assay relative to control; details: read-out: Activity
[28] = test system: SK-MEL-28; assay: Growth inhibition of human SK-MEL-28 cells incubated for 48 hrs by sulforhodamine B assay
[29] = test system: CCRF-CEM; assay: Growth inhibition of human CCRF-CEM cells incubated for 48 hrs by sulforhodamine B assay
[30] = test system: CCRF-CEM; assay: Growth inhibition of human CCRF-CEM cells assessed as cell growth at 1 uM incubated for 48 hrs by sulforhodamine B assay relative to control; details: read-out: Activity
[31] = test system: DU-145; assay: Growth inhibition of human DU-145 cells incubated for 48 hrs by sulforhodamine B assay
[32] = test system: BT-549; assay: Growth inhibition of human BT-549 cells incubated for 48 hrs by sulforhodamine B assay
[33] = test system: SNB-19; assay: Growth inhibition of human SNB-19 cells assessed as cell growth at 0.1 uM incubated for 48 hrs by sulforhodamine B assay relative to control; details: read-out: Activity
[34] = read-out: LC50 (the source's name)
[35] = read-out: pLC50 (the source's name) (converted)

CC(=O)Nc1cc(CCl)cc(NC(=O)c2ccc(C(=O)Nc3cccc(NC(=O)CCCN(C)C)c3)cc2)c1
103%: growth at 0.1 µM [2]
108%: growth at 1 µM [24]
97%: growth at 0.01 µM [25]
91%: growth at 1 µM [17] | growth at 1 µM [27]
94%: growth at 1 µM [9]
> 100 µM: LC50 ([3]; read-out: LC50) | TGI ([3]; read-out: TGI) | LC50 ([3]; read-out: pLC50 (converted)) | TGI ([3]; read-out: pTGI) | GI50 ([7]; read-out: GI50) | LC50 (concentration killing 50% of cells) ([7]; read-out: LC50) | TGI ([7]; read-out: TGI) | GI50 ([7]; read-out: pGI50 (converted)) | LC50 (concentration killing 50% of cells) ([7]; read-out: pLC50 (converted)) | TGI ([7]; read-out: pTGI) | GI50 ([8]; read-out: GI50) | LC50 ([8]; read-out: LC50) | TGI ([8]; read-out: TGI) | GI50 ([8]; read-out: pGI50 (converted)) | LC50 ([8]; read-out: pLC50 (converted)) | TGI ([8]; read-out: pTGI) | GI50 ([12]; read-out: GI50) | LC50 ([12]; read-out: LC50) | TGI ([12]; read-out: TGI) | GI50 ([12]; read-out: pGI50 (converted)) | LC50 ([12]; read-out: pLC50 (converted)) | TGI ([12]; read-out: pTGI) | GI50 ([16]; read-out: GI50) | CC50 [16, 34] | TGI ([16]; read-out: TGI) | GI50 ([16]; read-out: pGI50 (converted)) | CC50 [16, 35] | TGI ([16]; read-out: pTGI) | GI50 ([23]; read-out: GI50) | CC50 [23, 34] | TGI ([23]; read-out: TGI) | GI50 ([23]; read-out: pGI50 (converted)) | CC50 [23, 35] | TGI ([23]; read-out: pTGI) | GI50 ([28]; read-out: GI50) | LC50 (50% lethal concentration) ([28]; read-out: LC50) | TGI ([28]; read-out: TGI) | GI50 ([28]; read-out: pGI50 (converted)) | LC50 (50% lethal concentration) ([28]; read-out: pLC50 (converted)) | TGI ([28]; read-out: pTGI) | GI50 ([31]; read-out: GI50) | CC50 [31, 34] | TGI ([31]; read-out: TGI) | GI50 ([31]; read-out: pGI50 (converted)) | CC50 [31, 35] | TGI ([31]; read-out: pTGI) | GI50 ([32]; read-out: GI50) | CC50 [32, 34] | TGI ([32]; read-out: TGI) | GI50 ([32]; read-out: pGI50 (converted)) | CC50 [32, 35] | TGI ([32]; read-out: pTGI)
99%: growth at 100 µM [5] | growth at 0.01 µM [11] | growth at 100 µM [14]
41.8 µM: TGI ([29]; read-out: TGI)
101%: growth at 0.1 µM [6]
98%: growth at 0.01 µM [4]
37.8 µM: GI50 ([3]; read-out: GI50)
109%: growth at 1 µM [18]
113%: growth at 0.1 µM [20]
104%: growth at 0.1 µM [33]
77.6 µM: CC50 [29, 35]
107%: growth at 1 µM [30]
102%: growth at 0.01 µM [21]
95%: growth at 0.1 µM [22]
93%: growth at 0.1 µM [13]
38 µM: GI50 ([3]; read-out: pGI50 (converted))
41.7 µM: TGI ([29]; read-out: pTGI (converted))
78.2 µM: CC50 [29, 34]
116%: growth at 100 µM [1]
70%: growth at 1 µM [19]
22.4 µM: GI50 ([29]; read-out: GI50) | GI50 ([29]; read-out: pGI50 (converted))
96%: growth at 0.01 µM [26]
88%: growth at 0.1 µM [10] | growth at 1 µM [15]

CC(=O)Nc1cc(CO[Si](C)(C)C(C)(C)C)cc(NC(=O)c2ccc(C(=O)Nc3cccc(NC(=O)CCCN(C)C)c3)cc2)c1
127%: growth at 1 µM [19]
91%: growth at 0.1 µM [22]
112%: growth at 1 µM [18]
101%: growth at 0.01 µM [26]
106%: growth at 1 µM [15]
116%: growth at 100 µM [14]
98%: growth at 100 µM [5] | growth at 0.1 µM [13] | growth at 0.1 µM [20] | growth at 1 µM [30]
87%: growth at 100 µM [1]
> 75 µM: GI50 ([3]; read-out: GI50) | LC50 ([3]; read-out: LC50) | TGI ([3]; read-out: TGI) | GI50 ([7]; read-out: GI50) | LC50 (concentration killing 50% of cells) ([7]; read-out: LC50) | TGI ([7]; read-out: TGI) | GI50 ([8]; read-out: GI50) | LC50 ([8]; read-out: LC50) | TGI ([8]; read-out: TGI) | GI50 ([12]; read-out: GI50) | LC50 ([12]; read-out: LC50) | TGI ([12]; read-out: TGI) | GI50 ([16]; read-out: GI50) | CC50 [16, 34] | TGI ([16]; read-out: TGI) | GI50 ([23]; read-out: GI50) | CC50 [23, 34] | TGI ([23]; read-out: TGI) | GI50 ([28]; read-out: GI50) | LC50 (50% lethal concentration) ([28]; read-out: LC50) | TGI ([28]; read-out: TGI) | GI50 ([29]; read-out: GI50) | CC50 [29, 34] | TGI ([29]; read-out: TGI) | GI50 ([31]; read-out: GI50) | CC50 [31, 34] | TGI ([31]; read-out: TGI) | GI50 ([32]; read-out: GI50) | CC50 [32, 34] | TGI ([32]; read-out: TGI)
102%: growth at 0.01 µM [21]
97%: growth at 0.1 µM [2]
99%: growth at 0.01 µM [11] | growth at 1 µM [24]
103%: growth at 0.1 µM [6]
95%: growth at 0.01 µM [4]
93%: growth at 0.1 µM [10] | growth at 0.01 µM [25]
> 75.9 µM: GI50 ([3]; read-out: pGI50 (converted)) | LC50 ([3]; read-out: pLC50 (converted)) | TGI ([3]; read-out: pTGI) | GI50 ([7]; read-out: pGI50 (converted)) | LC50 (concentration killing 50% of cells) ([7]; read-out: pLC50 (converted)) | TGI ([7]; read-out: pTGI) | GI50 ([8]; read-out: pGI50 (converted)) | LC50 ([8]; read-out: pLC50 (converted)) | TGI ([8]; read-out: pTGI) | GI50 ([12]; read-out: pGI50 (converted)) | LC50 ([12]; read-out: pLC50 (converted)) | TGI ([12]; read-out: pTGI) | GI50 ([16]; read-out: pGI50 (converted)) | CC50 [16, 35] | TGI ([16]; read-out: pTGI) | GI50 ([23]; read-out: pGI50 (converted)) | CC50 [23, 35] | TGI ([23]; read-out: pTGI) | GI50 ([28]; read-out: pGI50 (converted)) | LC50 (50% lethal concentration) ([28]; read-out: pLC50 (converted)) | TGI ([28]; read-out: pTGI) | GI50 ([29]; read-out: pGI50 (converted)) | CC50 [29, 35] | TGI ([29]; read-out: pTGI (converted)) | GI50 ([31]; read-out: pGI50 (converted)) | CC50 [31, 35] | TGI ([31]; read-out: pTGI) | GI50 ([32]; read-out: pGI50 (converted)) | CC50 [32, 35] | TGI ([32]; read-out: pTGI)
96%: growth at 0.1 µM [33]
92%: growth at 1 µM [27]
100%: growth at 1 µM [9] | growth at 1 µM [17]
